In US9321838B2, “Therapy targeting cathepsin S” (Fusion Antibodies Limited, priority 2006, dated 2016):

Assays:
RKO+/+ cells [1] = test: RT semi quantitative PCR of CatS mRNA with/without CPT11; assay type: cell-based, human; conditions: 7.5 μM CPT11, 48 hour; treated vs untreated
HCT116+/+ cells [2] = test: as above; assay type: cell-based, human; conditions: 7.5 μM CPT11, 48 hour; treated vs untreated
HCT116+/+ cells [3] = test: flow cytometry of CatS cell surface expression with/without CPT11; assay type: cell-based, human; conditions: CPT11 48 hour treated; basal 39%
Procedure: (§1) Cells were collected from tissue culture plates using a scraper and washed ×3 in PBS (0.01% tween) (5 minute centrifugation at 1500 rpm). Approximately 5×10^5 cells were placed in appropriately labelled tubes. Cells were incubated with 50 μl anti-CatS or Isotype control (Sigma, UK) for 1 hour at room temperature. Following incubation each tube was washed ×3 in PBS (0.01% tween) (5 minute centrifugation at 1500 rpm). Samples were then incubated with a 1 in 15 dilution of FITC-conjugated goat anti-mouse secondary antibody (Sigma, UK) (samples kept in dark at room temperature). Following incubation each tube was washed ×3 in PBS (0.01% tween) (5 minute centrifugation at 1500 rpm). Samples were resuspended in 0.5 ml of PBS prior to immediate analysis using the Cyan flow cytometer (Dako, UK). Cell surface expression of CatS was examined using flow Cytometry.

RKO+/+ cells [4] = test: as above; assay type: cell-based, human; conditions: CPT11 48 hour treated; basal 38%
Procedure: as §1

H630 p53 mutant cells = test: as above; assay type: cell-based, human; conditions: CPT11 48 hour treated; basal 37%
Procedure: as §1

HCT116+/+ cells [5] = test: western blot of CatS in whole cell lysates with/without CPT11; assay type: cell-based, human; conditions: 48 hour CPT11 treatment (7.5 μM), whole cell lysate
Procedure: (§2) Cells were washed in PBS (5 minute centrifugation at 1500 rpm) prior to lysis with RIPA buffer containing a protease inhibitor cocktail (Calbiochem, UK) as previously described. Whole cell lysates were loaded onto 12% SDS-PAGE gels at equal concentrations. Gels were run overnight at 50V prior to semi-dry transfer onto nitrocellulose membrane at 20V for 45 minutes (BioRad, UK). The nitrocellulose membrane was blocked using PBS (3% Milk powder) for ˜1 hour, and washed ×3 with PBS (0.01% tween) for 5 minutes. The membrane was then probed with a 1 in 1000 dilution of CatS Mab (1E4 Mab or 1E11 Mab) in PBS (3% Milk powder) for 1 hour. The membrane was washed ×3 with PBS (0.01% tween) for 5 minutes prior to the addition of a 1 in 5000 dilution of secondary goat anti mouse-HRP conjugated antibody (BioRad, UK) in PBS (3% Milk powder) for 1 hour. This was then washed three times in PBS (0.01% tween) for 5 minutes each. The membrane was ‘developed’ by ECL (enhanced chemiluminescence) using the Super Signal kit (Pierce). The membrane was incubated in ECL solution for 5 minutes, prior to exposure to photographic film for various time periods. The photographic film was washed in developer solution (Sigma, UK) for 1 minute, rinsed with water, and washed in fixer solution (Sigma, UK) again for 1 minute before being rinsed and dried. […]

RKO+/+ cells [6] = test: as above; assay type: cell-based, human; conditions: 48 hour CPT11 treatment (7.5 μM), whole cell lysate
Procedure: as §2

other cathepsins = conditions: at higher concentrations; cited from earlier work
[7] = system: U251MG grade IV glioblastoma cell line; conditions: U251MG cells, in the presence of the Cat S inhibitor; cited from earlier work
[8] = system: HCT116+/+ human colorectal adenocarcinoma xenograft; test: HCT116+/+ xenograft model, immunohistochemistry of tumour sections; assay type: in vivo, SCID mice; conditions: 15 mg/kg; sections stained with CatS 1E11 mAb; vs untreated
Procedure: 6-8 week old female SCID mice were implanted with 2×10^6 HCT116+/+ human colorectal adenocarcinoma cells into each flank. […] They were mixed with equal volumes of matrigel to give a final concentration of 5×10^6 cells/ml. Mice were randomly separated into treatment groups on day 5 after implantation and treated with various regimes of CatS Mab or Isotype control Mab (10 mg/kg) with/without 5Fu (15 mg/kg daily or 70 mg/kg twice weekly). All drugs were administered through a bolus injection. Animals were sacrificed at various time points and tumours were removed for analysis.
Paraffin embedding of formalin-fixed xenograft/organ tissue samples, section cutting and H&E (haematoxylin and eosin) staining of tissue sections were performed as previously described. Immunostaining was performed using the avidin-horseradish peroxidase method (Vectorlabs ABC Kit).
Briefly, sections were deparaffinised by passing from xylene to alcohol to running water. Endogenous peroxidase activity was blocked by incubation in 3% H2O2 in methanol for 10 min. Sections were then boiled in citrate buffer, pH6.0, for 22 min. Incubation in 5% normal horse serum blocking solution was carried out for 20 min at room temp. Sections were incubated with primary antibody at 4° C. overnight. Appropriate isotype controls were used at the same dilutions as primary antibodies. […]

Which “CatS mRNA expression in response to chemotherapy” value (RKO+/+ cells [1]) does the source give for `CCc1c2c(nc3ccc(OC(=O)N4CCC(N5CCCCC5)CC4)cc13)-c1cc3c(c(=O)n1C2)COC(=O)[C@]3(O)CC` [CPT11, Irinotecan] here?
The value was “increase in expression”.

What about the “CatS mRNA expression in response to chemotherapy” value (HCT116+/+ cells [2]) of the same compound?
The value was “increase in expression”.

And the “positive CatS cell surface expression following chemotherapy induction” value (HCT116+/+ cells [3])?
Its value is 59%.

What about the “positive CatS cell surface expression following chemotherapy induction” value (RKO+/+ cells [4]) of the same compound?
Its value is 49%.

And the “positive CatS cell surface expression following chemotherapy induction” value (H630 p53 mutant cells)?
Its value is 41%.

And the “CatS whole protein expression, treated vs untreated” value (HCT116+/+ cells [5])?
Its value is “no obvious difference in whole protein expression levels”.

What about the “CatS whole protein expression, treated vs untreated” value (RKO+/+ cells [6]) of the same compound?
The value was “no obvious difference in whole protein expression levels”.

With `CC(C)C[C@H](NC(=O)N1CCOCC1)C(=O)N[C@H](/C=C/S(=O)(=O)c1ccccc1)CCc1ccccc1` [LHVS, 4-Morpholineurea-Leu-HomoPhe-vinylsulphone] as the compound, how does the “inhibition of other cathepsins” value (other cathepsins) read?
The value was “inhibit other cathepsins when used at higher concentrations”.

What about the reduction in invasion [7] of the same compound?
Its reduction in invasion is 61%.

For `O=c1[nH]cc(F)c(=O)[nH]1` [5-Fu, Fluorouracil, reference compound], which “CatS expression in tumour sections from treated mice” value [8] is on record?
The value was “upregulation in CatS expression”.
